Data on 2 compounds can be found in ChEMBL document CHEMBL1629673, “Role of known molecular markers of resistance in the antimalarial potency of piperaquine and dihydroartemisinin in vitro” (Antimicrob Agents Chemother, 2009).

In experiment [1] the test system is Plasmodium falciparum. The experiment in a line: Antiplasmodial activity against chloroquine-sensitive Plasmodium falciparum 3D7 infected in erythrocytes assessed as [3H]hypoxanthine incorporation in presence of dihydroartimisinin. The experiment is classed as functional.
Experiment [2] concerns Plasmodium falciparum. The experiment in a line: Antiplasmodial activity against chloroquine-resistant Plasmodium falciparum TM6 infected in erythrocytes assessed as [3H]hypoxanthine incorporation in presence of dihydroartimisinin. The experiment is classed as functional.
The subject of experiment [3] is Plasmodium falciparum. The experiment in a line: Antiplasmodial activity against chloroquine-resistant Plasmodium falciparum K1 infected in erythrocytes assessed as [3H]hypoxanthine incorporation in presence of dihydroartimisinin. Format: functional.
The subject of experiment [4] is Plasmodium falciparum. The experiment in a line: microbe, parasite or virus in culture. As to conditions: D10, 3 h.
Experiment [5] concerns Plasmodium falciparum. The experiment in a line: microbe, parasite or virus in culture. As to conditions: C2, 3 h.
The test system of experiment [6] is Plasmodium falciparum. The experiment in a line: Antiplasmodial activity against chloroquine-resistant Plasmodium falciparum 7G8 infected in erythrocytes assessed as [3H]hypoxanthine incorporation in presence of dihydroartimisinin. The experiment is classed as functional.
The test system of experiment [7] is Plasmodium falciparum. The experiment in a line: Antiplasmodial activity against chloroquine-resistant Plasmodium falciparum C3 harboring Dd2 pfcrt allele infected in erythrocytes assessed as [3H]hypoxanthine incorporation in presence of dihydroartimisinin. Format: functional.
The subject of experiment [8] is Plasmodium falciparum. The experiment in a line: Selectivity ratio of IC50 for chloroquine-resistant Plasmodium falciparum C3 harboring Dd2 pfcrt allele to IC50 for chloroquine-sensitive Plasmodium falciparum C2. The experiment is classed as functional.
For experiment [9], the system named is Plasmodium falciparum. The experiment is described as follows: Antiplasmodial activity against chloroquine-resistant Plasmodium falciparum C6harboring 7G8 pfcrt allele infected in erythrocytes assessed as [3H]hypoxanthine incorporation in presence of dihydroartimisinin. Format: functional, C6.
Experiment [10] relates to Plasmodium falciparum. The experiment is described as follows: microbe, parasite or virus in culture. As to conditions: 7G8, 3 h.
Experiment [11] concerns Plasmodium falciparum. The experiment is described as follows: microbe, parasite or virus in culture. As to conditions: 7G8, 3 h. The source holds these as a separate data set.
Experiment [12] concerns Plasmodium falciparum. The experiment is described as follows: microbe, parasite or virus in culture. As to conditions: K1, 3 h.
The test system of experiment [13] is Plasmodium falciparum. The experiment is described as follows: microbe, parasite or virus in culture. As to conditions: C3, 3 h.
Experiment [14] concerns Plasmodium falciparum. The experiment in a line: Antiplasmodial activity against chloroquine-sensitive Plasmodium falciparum D10 harboring 7G8 pfcrt allele infected in erythrocytes assessed as [3H]hypoxanthine incorporation in presence of dihydroartimisinin. The experiment is classed as functional.
Experiment [15] deals with Plasmodium falciparum. The experiment in a line: microbe, parasite or virus in culture. As to conditions: 7G8, 3 h. The source holds these as a separate data set.
Experiment [16] relates to Plasmodium falciparum. The experiment in a line: microbe, parasite or virus in culture. As to conditions: C6, 3 h.
Experiment [17] has as its system Plasmodium falciparum. The experiment in a line: microbe, parasite or virus in culture. As to conditions: 3D7, 3 h.
For experiment [18], the system named is Plasmodium falciparum. The experiment in a line: Antiplasmodial activity against chloroquine-resistant Plasmodium falciparum 7G8 harboring parental pfcrt allele infected in erythrocytes assessed as [3H]hypoxanthine incorporation in presence of dihydroartimisinin. Format: functional.
For experiment [19], the system named is Plasmodium falciparum. The experiment is described as follows: microbe, parasite or virus in culture. As to conditions: TM6, 3 h.
For experiment [20], the system named is Plasmodium falciparum. The experiment is described as follows: Antiplasmodial activity against chloroquine-sensitive Plasmodium falciparum C2 infected in erythrocytes assessed as [3H]hypoxanthine incorporation in presence of dihydroartimisinin. Format: functional.
In experiment [21] the test system is Plasmodium falciparum. The experiment is described as follows: Antiplasmodial activity against chloroquine-resistant Plasmodium falciparum 7G8 harboring D10 pfcrt allele infected in erythrocytes assessed as [3H]hypoxanthine incorporation in presence of dihydroartimisinin. Format: functional.
Experiment [22] concerns Plasmodium falciparum. The experiment is described as follows: Antiplasmodial activity against chloroquine-sensitive Plasmodium falciparum D10 infected in erythrocytes assessed as [3H]hypoxanthine incorporation in presence of dihydroartimisinin. Format: functional.
The test system of experiment [23] is Plasmodium falciparum. The experiment in a line: Antiplasmodial activity against chloroquine-resistant Plasmodium falciparum 7G8 harboring parental pfcrt allele infected in erythrocytes assessed as [3H]hypoxanthine incorporation in presence of piperaquine. Format: functional.
Experiment [24] has as its system Plasmodium falciparum. The experiment is described as follows: Antiplasmodial activity against chloroquine-resistant Plasmodium falciparum 7G8 harboring D10 pfcrt allele infected in erythrocytes assessed as [3H]hypoxanthine incorporation in presence of piperaquine. The experiment is classed as functional.
Experiment [25] deals with Plasmodium falciparum. The experiment is described as follows: Antiplasmodial activity against chloroquine-resistant Plasmodium falciparum 7G8 infected in erythrocytes assessed as [3H]hypoxanthine incorporation in presence of piperaquine. The experiment is classed as functional.
Experiment [26] deals with Plasmodium falciparum. The experiment is described as follows: Antiplasmodial activity against chloroquine-sensitive Plasmodium falciparum D10 harboring 7G8 pfcrt allele infected in erythrocytes assessed as [3H]hypoxanthine incorporation in presence of piperaquine. The experiment is classed as functional.
In experiment [27] the test system is Plasmodium falciparum. The experiment is described as follows: Antiplasmodial activity against chloroquine-resistant Plasmodium falciparum C6harboring 7G8 pfcrt allele infected in erythrocytes assessed as [3H]hypoxanthine incorporation in presence of piperaquine. Format: functional, C6.
In experiment [28] the test system is Plasmodium falciparum. The experiment is described as follows: Antiplasmodial activity against chloroquine-resistant Plasmodium falciparum K1 infected in erythrocytes assessed as [3H]hypoxanthine incorporation in presence of piperaquine. Format: functional.
Experiment [29] relates to Plasmodium falciparum. The experiment is described as follows: microbe, parasite or virus in culture. As to conditions: D10, 3 h. This is another data set of the same source.
Experiment [30] has as its system Plasmodium falciparum. The experiment in a line: Antiplasmodial activity against chloroquine-resistant Plasmodium falciparum TM6 infected in erythrocytes assessed as [3H]hypoxanthine incorporation in presence of piperaquine. The experiment is classed as functional.
For experiment [31], the system named is Plasmodium falciparum. The experiment is described as follows: Antiplasmodial activity against chloroquine-sensitive Plasmodium falciparum 3D7 infected in erythrocytes assessed as [3H]hypoxanthine incorporation in presence of piperaquine. Format: functional.

Consider `Clc1ccc2c(N3CCN(CCCN4CCN(c5ccnc6cc(Cl)ccc56)CC4)CC3)ccnc2c1` [PIPERAQUINE], for which the “fractional inhibitory concentration index (FICI)” value in the experiment with Plasmodium falciparum [1] stood at 2.4; in the experiment with Plasmodium falciparum [2], 1.25; in the experiment with Plasmodium falciparum [3] it was 1.27; in the experiment with Plasmodium falciparum [6], 2.86; in the experiment on Plasmodium falciparum [7] it was 1.7; with Plasmodium falciparum [9], 2.51. Further, the “fractional inhibitory concentration index (FICI)” value in the experiment on Plasmodium falciparum [14] is reported as 1.34; with Plasmodium falciparum [18], 0.8; in the experiment on Plasmodium falciparum [20], 1.59; in the experiment on Plasmodium falciparum [21] it was 1.34; in the experiment on Plasmodium falciparum [22], 1.48. Moreover, the IC50 with Plasmodium falciparum [4] is 8.1 nM; in the experiment with Plasmodium falciparum [5], 3.9 nM; in the experiment on Plasmodium falciparum [10], 12 nM; with Plasmodium falciparum [11] it was 9.1 nM; with Plasmodium falciparum [12] it was 13.4 nM; with Plasmodium falciparum [13] it was 11.5 nM. Besides, the IC50 with Plasmodium falciparum [15] was 11.2 nM; with Plasmodium falciparum [16], 6.6 nM; in the experiment on Plasmodium falciparum [17], 3.4 nM; in the experiment with Plasmodium falciparum [19], 15.8 nM. In the experiment with Plasmodium falciparum [8], the “fold change (FC)” value turned out to be 3.
For `C[C@H]1[C@@H](O)O[C@@H]2O[C@@]3(C)CC[C@H]4[C@H](C)CC[C@@H]1[C@@]24OO3` [ARTENIMOL], the “fractional inhibitory concentration index (FICI)” value with Plasmodium falciparum [23] turned out to be 0.8; with Plasmodium falciparum [24], 1.34; in the experiment on Plasmodium falciparum [25] it was 2.86; in the experiment with Plasmodium falciparum [26], 1.34; in the experiment on Plasmodium falciparum [27], 2.51; in the experiment with Plasmodium falciparum [28], 1.27. Further, the “fractional inhibitory concentration index (FICI)” value turned out to be 1.25 in the experiment on Plasmodium falciparum [30] and 2.4 with Plasmodium falciparum [31]. For the same compound, the IC50 with Plasmodium falciparum [4] came out at 0.7 nM; with Plasmodium falciparum [5], 0.8 nM; in the experiment on Plasmodium falciparum [10] it was 1.3 nM; with Plasmodium falciparum [11] it was 0.6 nM; in the experiment with Plasmodium falciparum [12], 1 nM; with Plasmodium falciparum [13] it was 1 nM. For the same compound, the 50% inhibitory concentration (IC50) came out at 1.3 nM in the experiment on Plasmodium falciparum [15]; 0.3 nM with Plasmodium falciparum [16]; 0.6 nM in the experiment on Plasmodium falciparum [17]; 1 nM in the experiment with Plasmodium falciparum [19]; 0.7 nM with Plasmodium falciparum [29].

As usually defined, the IC50 is the concentration needed to halve the response being measured. Lower therefore signals inhibition by little substance.
